Earlier results in patent US20180360817A1, “EXTENDED RELEASE OSMOTIC DOSAGE FORM COMPRISING HIGH METHYLPHENIDATE HYDROCHLORIDE LOAD” (CADILA HEALTHCARE LIMITED, priority 2015, published 2018).
Where two headings read alike, the source gives them in different places.

COC(=O)C(c1ccccc1)C1CCCCN1.Cl (racemic) [Methylphenidate hydrochloride, d,l (racemic) methyl α-phenyl-2-piperidineacetate hydrochloride]
Solubility (in acetone): slightly soluble | Solubility (in alcohol): soluble | Solubility (in chloroform): slightly soluble | Solubility (in methanol): freely soluble | Solubility (in water): freely soluble
